Toxic doses and inconclusive results are not listed.
System: B6C3F1 mice, ip Sarcoma M5076, median survival T/C
Experiment: NCI In Vivo Anticancer Drug Screen. Data for tumor model Sarcoma M5076 (intraperitoneal) in B6C3F1 mice
Conditions: endpoint: median survival time, schedule: Q04DX004 (ip), higher = longer survival
Procedure, shortened: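 The readout is a ratio of survival in drug-treated animals to survival in animals given vehicle alone, taken in mice bearing a transplanted tumour line.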

[1] = dose: 50.0 mg/kg/injection, vehicle: Klucel (hydroxypropylcellulose) (HPC)
[2] = dose: 100.0 mg/kg/injection, vehicle: Klucel (hydroxypropylcellulose) (HPC)
[3] = dose: 200.0 mg/kg/injection, vehicle: Klucel (hydroxypropylcellulose) (HPC)
[4] = dose: 400.0 mg/kg/injection, vehicle: Klucel (hydroxypropylcellulose) (HPC)
[5] = dose: 50.0 mg/kg/injection, vehicle: saline with Tween-80
[6] = dose: 25.0 mg/kg/injection, vehicle: saline with Tween-80
[7] = dose: 100.0 mg/kg/injection, vehicle: saline with Tween-80
[8] = dose: 200.0 mg/kg/injection, vehicle: saline with Tween-80
[9] = dose: 400.0 mg/kg/injection, vehicle: saline with Tween-80

Question: `CN1C(=O)C(=O)N(Cc2ccc(CN3C(=O)C(=O)N(C)C3=O)cc2)C1=O` was tested. Which T/C [1] did it give?
Answer: The T/C was 98 % of control.

Question: What about the T/C [2] of the same compound?
Answer: Its T/C is 94 % of control.

Question: What about the T/C [3] of the same compound?
Answer: Its T/C is 115 % of control.

Question: And the T/C [4]?
Answer: The T/C was 92 % of control.

Question: What does the source list for `CCCC1(c2ccccc2)C(=O)NCNC1=O`?
Answer: T/C [1]: 99 % of control; T/C [2]: 95 % of control; T/C [3]: 88 % of control; T/C [4]: 88 % of control; T/C (dose: 800.0 mg/kg/injection, vehicle: Klucel (hydroxypropylcellulose) (HPC)): 88 % of control

Question: How did the T/C (dose: 4.8 mg/kg/injection, vehicle: suspension in saline) turn out when `COc1cc([C@@H]2c3cc4c(c(O)c3C[C@H]3COC(=O)[C@@H]32)OCO4)cc(OC)c1OC` was run?
Answer: The T/C was 159 % of control.

Question: And the T/C (dose: 8.0 mg/kg/injection, vehicle: suspension in saline)?
Answer: The T/C was 163 % of control.

Question: And the T/C (dose: 13.3 mg/kg/injection, vehicle: suspension in saline)?
Answer: The T/C was 155 % of control.

Question: Which T/C [5] does the source give for `COc1cc(C2CC(C)(O)Oc3cc4c(cc32)OCO4)cc(OC)c1OC` (stereo not drawn) here?
Answer: Its T/C is 115 % of control.

Question: `COc1cc2c(c3c1/c(=N/N)c1ccccc1n3C)C=CC(C)(C)O2` was tested. Which T/C [6] did it give?
Answer: Its T/C is 108 % of control.

Question: What about the T/C [5] of the same compound?
Answer: The T/C was 110 % of control.

Question: And the T/C [7]?
Answer: Its T/C is 89 % of control.

Question: What about the T/C [8] of the same compound?
Answer: The T/C was 104 % of control.

Question: How did the T/C (dose: 28.13 mg/kg/injection, vehicle: saline with Tween-80) turn out when `O=C(Nc1ccccc1)c1cc2ccccc2oc1=O` was run?
Answer: The T/C was 94 % of control.

Question: And the T/C (dose: 56.25 mg/kg/injection, vehicle: saline with Tween-80)?
Answer: The T/C was 92 % of control.

Question: For `O=c1c2ccccc2nc(-c2ccccc2)n1-c1nccs1`, which T/C [6] is on record?
Answer: The T/C was 94 % of control.

Question: And the T/C [8]?
Answer: Its T/C is 89 % of control.

Question: What about the T/C [9] of the same compound?
Answer: Its T/C is 90 % of control.

Question: How did the T/C [5] turn out when `COCCCn1c(C(Cl)(Cl)Cl)nn2c(=O)c3ccccc3nc2c1=O` was run?
Answer: The T/C was 103 % of control.

Question: And the T/C [7]?
Answer: Its T/C is 99 % of control.

Question: What about the T/C [8] of the same compound?
Answer: The T/C was 94 % of control.

Question: What about the T/C [9] of the same compound?
Answer: The T/C was 90 % of control.

Question: With `COc1cc(C(C)(C)C)cc(OC)c1C(O)(c1c(OC)cc(C(C)(C)C)cc1OC)c1c(OC)cc(C(C)(C)C)cc1OC` as the compound, how does the T/C [6] read?
Answer: Its T/C is 123 % of control.

Question: What about the T/C [5] of the same compound?
Answer: The T/C was 116 % of control.

Question: What about the T/C [7] of the same compound?
Answer: Its T/C is 108 % of control.

Question: And the T/C [8]?
Answer: Its T/C is 123 % of control.

Question: How did the T/C (dose: 0.31 mg/kg/injection, vehicle: saline) turn out when `CN(C)[C@@H]1C(=O)C(C(=O)NCN2CCN(C(=N)N=C(N)N)CC2)=C(O)[C@@]2(O)C(=O)C3=C(O)c4c(O)cccc4[C@@](C)(O)[C@H]3C[C@@H]12` was run?
Answer: Its T/C is 105 % of control.

Question: What about the T/C (dose: 0.62 mg/kg/injection, vehicle: saline) of the same compound?
Answer: The T/C was 102 % of control.

Question: What about the T/C (dose: 1.25 mg/kg/injection, vehicle: saline) of the same compound?
Answer: The T/C was 102 % of control.

Question: What about the T/C (dose: 1.8 mg/kg/injection, vehicle: suspension in saline) of the same compound?
Answer: Its T/C is 94 % of control.

Question: What about the T/C (dose: 2.5 mg/kg/injection, vehicle: saline) of the same compound?
Answer: Its T/C is 95 % of control.

Question: And the T/C (dose: 3.0 mg/kg/injection, vehicle: suspension in saline)?
Answer: The T/C was 90 % of control.

Question: And the T/C (dose: 5.0 mg/kg/injection, vehicle: saline)?
Answer: Its T/C is 106 % of control.

Question: What about the T/C (dose: 5.0 mg/kg/injection, vehicle: suspension in saline) of the same compound?
Answer: The T/C was 93 % of control.

Question: What about the T/C (dose: 8.33 mg/kg/injection, vehicle: suspension in saline) of the same compound?
Answer: Its T/C is 91 % of control.

Question: And the T/C (dose: 13.88 mg/kg/injection, vehicle: suspension in saline)?
Answer: Its T/C is 94 % of control.

Question: What does the source list for `Oc1ccc(/C=N/N=C/c2ccc(O)c(O)c2)cc1O`?
Answer: T/C [5]: 98 % of control; T/C [7]: 95 % of control; T/C [8]: 95 % of control; T/C [9]: 93 % of control; T/C (dose: 800.0 mg/kg/injection, vehicle: saline with Tween-80): 107 % of control

Question: For `Nc1ccccc1N`, which T/C (dose: 12.0 mg/kg/injection, vehicle: Klucel (hydroxypropylcellulose) (HPC)) is on record?
Answer: The T/C was 99 % of control.

Question: And the T/C (dose: 25.0 mg/kg/injection, vehicle: Klucel (hydroxypropylcellulose) (HPC))?
Answer: The T/C was 98 % of control.

Question: What about the T/C [1] of the same compound?
Answer: The T/C was 110 % of control.

Question: And the T/C [2]?
Answer: Its T/C is 98 % of control.

Question: And the T/C [3]?
Answer: The T/C was 103 % of control.

Question: `COC1C(CO)OC(n2cnc3c(=S)nc(N)[nH]c32)C1O` (stereo not drawn) was tested. Which T/C [1] did it give?
Answer: Its T/C is 93 % of control.

Question: What about the T/C [2] of the same compound?
Answer: The T/C was 100 % of control.

Question: What about the T/C [3] of the same compound?
Answer: The T/C was 105 % of control.
